For data set [1], the system named is human renal cell adenocarcinoma (786-0 cell line). In words: Rat xenograft model of human renal cell adenocarcinoma: histology and immunohistochemistry of residual tumors. In kind it is in vivo, Sprague-Dawley Rag2; Il2rg null (SRG) rat. How it is done:
Microscopic Examination: Tissues fixed with 10% NBF were embedded in paraffin. Each tumor was cut into 2-3 pieces and embedded and sectioned together.
The lymphohistiocytic infiltrate density based on assessment of […] and immunohistochemical staining with CD11b, graded semi quantitatively is shown in Table 31.
A review was conducted on the morphologic and immunohistochemical features of a subset of 14 female rats from the renal cell carcinoma study aimed to assess the efficacy of intratumoral NanoDoce® (the total study contained 30 animals). […] The NanoDoce® group was separated into three groups based on the number of administered cycles: group 1 (1 cycle; 3 animals), group 2 (2 cycles; 3 animals), and group 3 (3 cycles; 2 animals).
For orientation: In xenograft studies the graft and the host belong to different species.

The subject of data set [2] is UM-UC-3 bladder cancer cell line (ATCC-CRL-1749) tumors. The data set is described as follows: Human bladder cancer (UM-UC-3) mouse xenograft study: tumor volume, body weight, histology. In kind it is in vivo, Hsd:Athymic Nude-Foxn1nu nude mice. The method, then:
Tumor volume was determined with calipers. […] Animals were weighed 2×/week.
At day 18 after tumor implant, when average tumor size was between 50-325 mm^3, animals were sorted into five groups with equal average tumor sizes and were treated as shown in Table 25 below.
For IT administration (Vehicle/NANODOCE®), injections (using 27 G, ½″ needle) were administered at three sites within the tumor (total calculated injection volume based on 40 mg/mL NANODOCE® stock and 25 g mouse=63 μL; split evenly across the three injection sites) to maximize distribution of the test formulation throughout the tumor. The second treatments (2nd cycle) occurred 7 days following first treatment (1st cycle) and third treatments (3rd cycle) occurred 14 days following the first treatment. The docetaxel solution IV was administered via the tail vein.
The test formulations were prepared as follows: • Vehicle (Control): Diluted 1 ml of the 1% Polysorbate 80/8% Ethanol in normal saline (0.9% Sodium Chloride for Injection) reconstitution solution with 1.5 mL of normal saline (0.9% Sodium Chloride for Injection, USP). The final concentration of polysorbate 80 was 0.4% and the final concentration of ethanol was 3.2% in the Vehicle. • NANODOCE® Suspension: Added 1 ml of the 1% Polysorbate 80/8% Ethanol in normal saline (0.9% Sodium Chloride for Injection) reconstitution solution into the vial of NANODOCE® particles powder (100 mg/60 cc vial). The mean particle size (number) of the NANODOCE® particles powder was 1.0 micron. Vigorously hand shook the vial with inversions for 1 minute. […] Vortexed to mix.

Data set [3] has as its system human renal cell adenocarcinoma (786-0 cell line). In words: Rat xenograft model of human renal cell adenocarcinoma: tumor volume, body weight, observations. The data set is classed as in vivo, Sprague-Dawley Rag2; Il2rg null (SRG) rat. The following applies: IV, 3 weekly cycles.
The nature of data set [4]: Rat xenograft model of human renal cell adenocarcinoma: docetaxel concentration in tumor tissue, LC-MS/MS. As to conditions: 38 days following the last of three weekly cycles IV (5-[…]); LOQ 1.00 ng/g. In kind it is in vivo, Sprague-Dawley Rag2; Il2rg null (SRG) rat. The method, then:
A calibration curve, prepared in rat control tumor tissue homogenate, was analyzed at the beginning and the end of each analytical run. Two sets of quality control (QC) samples were prepared at four concentration levels (low, mid-1, mid-2 and high) and were used to ensure reliability of the assay.

`CC(=O)O[C@@]12CO[C@@H]1C[C@H](O)[C@@]1(C)C(=O)[C@H](O)C3=C(C)[C@@H](OC(=O)[C@H](O)[C@@H](NC(=O)OC(C)(C)C)c4ccccc4)C[C@@](O)([C@@H](OC(=O)c4ccccc4)[C@H]21)C3(C)C` [Doce]: in data set [1] (IV docetaxel, 2 animals), the “Number of animals with <5% of tissue showing necrosis” value came to 2; the “Number of animals with Mild lymphohistiocytic infiltrate density (H&E and CD11b IHC, semi quantitative)” value is reported as 2.

Turning to `CC(=O)OC12CO[C@@H]1C[C@H](O)[C@@]1(C)C(=O)[C@H](O)C3=C(C)[C@@H](OC(=O)[C@H](O)[C@@H](NC(=O)OC(C)(C)C)c4ccccc4)C[C@@](O)([C@@H](OC(=O)c4ccccc4)[C@H]21)C3(C)C` (some centres unmarked) [Docetaxel, docetaxel], in data set [2] (Docetaxel Solution IV 3 cycles), the “histology general observations (H&E)” value was “many viable appearing tumor masses with some macrophage and occasional lymphocytic response along with some tumor necrosis”. In data set [2] (IV 3 cycles), the “initial animal weight loss compared with NanoDoce IT 1, 2 and 3 cycles” value is “generally greater”; the “signs of peripheral neuropathy compared with NanoDoce IT 3 cycles” value is recorded as “greater signs of peripheral neuropathy”; the “treatment effect relative to initial tumor size” value is “somewhat effective at treating small tumors, but not very effective in treating large tumors”. Besides, the “tumor volumes over time” value in data set [2] (IV 3 cycles (weekly), 61 days) was “decreased initially for dosages of NanoDoce® IT 1 cycle and Docetaxel IV 3 cycles, but subsequently increased”. The “tumor growth compared to vehicle control” value in data set [3] is “partial tumor growth inhibition”. Also, in data set [4], the “animals evaluated with a detectable docetaxel level in tumor tissue” value is “one of four” and the “docetaxel level in tumor tissue” value turned out to be 21.8 ng/g. In data set [1] (IV 3 cycles, female rat), the “histology (H&E) compared with vehicle control” value was “no difference”. Further, the “Number of animals with residual viable tumor >10 mm (maximum cross-sectional dimension of viable carcinoma on slide)” value in data set [1] (IV docetaxel QWX3, 2 animals evaluated) is recorded as 2. In addition, the “residual viable carcinoma nodule, maximum dimension on the slide” value in data set [1] (both IV docetaxel animals) is on record as “greater than 10 mm”. Moreover, the “morphologic and immunohistochemical appearance” value in data set [1] (two IV docetaxel cases (3 cycles)) is “identical morphologic and immunohistochemical appearance to that seen in the control and IT vehicle groups”.

Source of the values: patent publication US11918691B2, “Local delivery of antineoplastic particles in combination with systemic delivery of immunotherapeutic agents for the treatment of cancer” (CRITITECH, INC., priority 2017, dated 2024).
